Source: the kinase profiling compilation of Christmann-Franck et al. (2016)
Values belong to the compound of their own block, whether it stands above or below them.

What was measured:
Experiment in all cases: radiometric filter-binding kinase assay
TBK1 (human) = TBK1 (human) (UniProt Q9UHD2)
MYLK (human) = MYLK (human) (UniProt Q15746)
PRKCA (human) = PRKCA (human) (UniProt P17252)
BRSK2 (human) = BRSK2 (human) (UniProt Q8IWQ3)
SRC (human) = SRC (human) (UniProt P12931)
DYRK3 (human) = DYRK3 (human) (UniProt O43781)
[1] = test system: PAK2 (human), Q13177 [T402E]
NTRK1 (human) = NTRK1 (human) (UniProt P04629)
ERBB4 (human) = ERBB4 (human) (UniProt Q15303)
AURKB (human) = AURKB (human) (UniProt Q96GD4)
MAPKAPK5 (human) = MAPKAPK5 (human) (UniProt Q8IW41)
NEK6 (human) = NEK6 (human) (UniProt Q9HC98)
HIPK1 (human) = HIPK1 (human) (UniProt Q86Z02)
MAP3K1 (human) = MAP3K1 (human) (UniProt Q13233)
MAPKAPK2 (human) = MAPKAPK2 (human) (UniProt P49137)
MAPK13 (human) = MAPK13 (human) (UniProt O15264)
STK3 (human) = STK3 (human) (UniProt Q13188)
MAP3K5 (human) = MAP3K5 (human) (UniProt Q99683)
SRPK1 (human) = SRPK1 (human) (UniProt Q96SB4)
MARK1 (human) = MARK1 (human) (UniProt Q9P0L2)
RIPK2 (human) = RIPK2 (human) (UniProt O43353)
PIM1 (human) = PIM1 (human) (UniProt P11309)
[2] = test system: AKT2 (human), P31751 [S474D]
FGFR1 (human) = FGFR1 (human) (UniProt P11362)
AURKA (human) = AURKA (human) (UniProt O14965)
MAP2K1 (human) = MAP2K1 (human) (UniProt Q02750)
MELK (human) = MELK (human) (UniProt Q14680)
MAP2K2 (human) = MAP2K2 (human) (UniProt P36507)
YES1 (human) = YES1 (human) (UniProt P07947)
BRSK1 (human) = BRSK1 (human) (UniProt Q8TDC3)
FLT1 (human) = FLT1 (human) (UniProt P17948)
CaMK1 (human) = CaMK1 (human) (UniProt Q14012)
IGF1R (human) = IGF1R (human) (UniProt P08069)
TTK (human) = TTK (human) (UniProt P33981)
DAPK1 (human) = DAPK1 (human) (UniProt P53355)

Sequence of MAP2K2 (human) (P36507 whole entry, looked up): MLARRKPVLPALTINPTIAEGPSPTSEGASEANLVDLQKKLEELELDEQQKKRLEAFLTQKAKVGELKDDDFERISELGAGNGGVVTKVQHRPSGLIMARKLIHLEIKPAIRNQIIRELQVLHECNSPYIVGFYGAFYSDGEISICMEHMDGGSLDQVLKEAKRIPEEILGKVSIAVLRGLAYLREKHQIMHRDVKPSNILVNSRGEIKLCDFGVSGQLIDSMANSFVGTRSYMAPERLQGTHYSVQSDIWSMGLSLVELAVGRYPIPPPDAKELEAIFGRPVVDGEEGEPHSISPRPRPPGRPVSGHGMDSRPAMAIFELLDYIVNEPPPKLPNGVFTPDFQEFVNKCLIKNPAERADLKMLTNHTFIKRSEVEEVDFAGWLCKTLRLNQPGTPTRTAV
Sequence of AURKA (human) (O14965 whole entry, looked up): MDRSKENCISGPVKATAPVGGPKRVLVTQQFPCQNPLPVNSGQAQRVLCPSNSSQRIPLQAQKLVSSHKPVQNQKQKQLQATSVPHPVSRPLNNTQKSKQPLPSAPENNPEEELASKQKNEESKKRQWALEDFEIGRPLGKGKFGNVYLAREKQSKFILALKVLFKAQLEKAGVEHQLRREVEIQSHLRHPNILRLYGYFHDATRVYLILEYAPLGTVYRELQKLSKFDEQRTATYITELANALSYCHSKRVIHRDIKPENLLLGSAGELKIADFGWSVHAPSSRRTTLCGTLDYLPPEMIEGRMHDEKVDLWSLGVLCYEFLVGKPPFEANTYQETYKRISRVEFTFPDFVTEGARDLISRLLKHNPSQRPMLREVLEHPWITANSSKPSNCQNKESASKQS
Sequence of DYRK3 (human) (O43781 whole entry, looked up): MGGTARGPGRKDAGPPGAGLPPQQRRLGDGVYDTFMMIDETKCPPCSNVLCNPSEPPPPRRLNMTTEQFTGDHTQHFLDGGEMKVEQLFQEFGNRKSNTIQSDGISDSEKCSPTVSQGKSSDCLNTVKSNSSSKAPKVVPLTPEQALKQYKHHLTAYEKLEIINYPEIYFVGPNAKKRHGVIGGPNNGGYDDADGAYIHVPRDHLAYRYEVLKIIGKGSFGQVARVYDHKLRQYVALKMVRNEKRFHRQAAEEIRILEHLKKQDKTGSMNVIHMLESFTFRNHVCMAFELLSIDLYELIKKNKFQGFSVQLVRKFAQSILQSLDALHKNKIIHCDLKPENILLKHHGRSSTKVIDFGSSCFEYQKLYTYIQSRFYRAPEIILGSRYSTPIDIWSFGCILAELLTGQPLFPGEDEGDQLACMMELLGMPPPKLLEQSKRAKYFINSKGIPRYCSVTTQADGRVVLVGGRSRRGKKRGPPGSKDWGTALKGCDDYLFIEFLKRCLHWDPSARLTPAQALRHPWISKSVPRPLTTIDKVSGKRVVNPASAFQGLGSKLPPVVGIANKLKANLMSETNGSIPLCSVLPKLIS
Sequence of FLT1 (human) (P17948 whole entry, looked up): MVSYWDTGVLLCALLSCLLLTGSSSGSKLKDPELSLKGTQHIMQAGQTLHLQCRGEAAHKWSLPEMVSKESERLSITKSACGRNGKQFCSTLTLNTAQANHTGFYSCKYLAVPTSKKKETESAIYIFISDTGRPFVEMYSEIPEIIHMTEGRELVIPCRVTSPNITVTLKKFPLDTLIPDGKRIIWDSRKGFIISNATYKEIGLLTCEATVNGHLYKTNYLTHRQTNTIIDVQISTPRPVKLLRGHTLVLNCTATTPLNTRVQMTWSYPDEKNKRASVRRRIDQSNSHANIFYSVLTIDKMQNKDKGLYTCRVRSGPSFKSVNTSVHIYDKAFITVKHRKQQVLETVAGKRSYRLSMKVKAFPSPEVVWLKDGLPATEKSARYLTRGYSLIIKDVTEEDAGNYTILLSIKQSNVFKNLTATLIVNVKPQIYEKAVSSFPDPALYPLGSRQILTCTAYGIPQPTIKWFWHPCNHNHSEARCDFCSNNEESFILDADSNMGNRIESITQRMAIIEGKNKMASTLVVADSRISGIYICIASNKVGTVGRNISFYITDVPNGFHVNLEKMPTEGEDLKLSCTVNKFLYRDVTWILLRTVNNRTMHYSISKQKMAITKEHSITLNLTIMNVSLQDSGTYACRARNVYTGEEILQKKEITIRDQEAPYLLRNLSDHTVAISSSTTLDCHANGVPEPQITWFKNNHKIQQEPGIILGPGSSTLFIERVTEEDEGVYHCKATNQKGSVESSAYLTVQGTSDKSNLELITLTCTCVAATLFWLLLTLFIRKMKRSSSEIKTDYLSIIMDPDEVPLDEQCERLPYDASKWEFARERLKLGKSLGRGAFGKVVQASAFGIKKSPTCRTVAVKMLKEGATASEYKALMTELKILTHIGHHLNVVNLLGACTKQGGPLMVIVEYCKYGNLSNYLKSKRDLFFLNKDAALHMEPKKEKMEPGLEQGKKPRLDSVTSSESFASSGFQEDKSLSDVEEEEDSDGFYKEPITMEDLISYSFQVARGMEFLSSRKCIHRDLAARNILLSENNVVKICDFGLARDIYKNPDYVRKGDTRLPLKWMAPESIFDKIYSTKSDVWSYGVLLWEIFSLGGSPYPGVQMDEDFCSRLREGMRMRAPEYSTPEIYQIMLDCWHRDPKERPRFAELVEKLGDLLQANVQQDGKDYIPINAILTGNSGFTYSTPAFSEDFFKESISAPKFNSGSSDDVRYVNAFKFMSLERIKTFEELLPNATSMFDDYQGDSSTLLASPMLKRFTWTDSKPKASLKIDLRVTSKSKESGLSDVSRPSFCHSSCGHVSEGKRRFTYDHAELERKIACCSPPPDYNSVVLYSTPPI
Sequence of AURKB (human) (Q96GD4 whole entry, looked up): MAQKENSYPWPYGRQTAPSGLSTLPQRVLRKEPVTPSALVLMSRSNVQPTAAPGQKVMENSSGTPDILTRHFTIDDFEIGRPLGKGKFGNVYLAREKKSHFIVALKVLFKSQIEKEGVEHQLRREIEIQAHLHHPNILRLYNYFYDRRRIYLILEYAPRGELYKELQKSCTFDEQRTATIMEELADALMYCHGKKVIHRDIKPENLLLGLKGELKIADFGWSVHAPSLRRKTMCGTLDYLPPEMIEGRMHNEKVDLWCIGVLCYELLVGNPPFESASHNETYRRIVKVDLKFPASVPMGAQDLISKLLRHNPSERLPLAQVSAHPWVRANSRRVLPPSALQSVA
Sequence of BRSK2 (human) (Q8IWQ3 whole entry, looked up): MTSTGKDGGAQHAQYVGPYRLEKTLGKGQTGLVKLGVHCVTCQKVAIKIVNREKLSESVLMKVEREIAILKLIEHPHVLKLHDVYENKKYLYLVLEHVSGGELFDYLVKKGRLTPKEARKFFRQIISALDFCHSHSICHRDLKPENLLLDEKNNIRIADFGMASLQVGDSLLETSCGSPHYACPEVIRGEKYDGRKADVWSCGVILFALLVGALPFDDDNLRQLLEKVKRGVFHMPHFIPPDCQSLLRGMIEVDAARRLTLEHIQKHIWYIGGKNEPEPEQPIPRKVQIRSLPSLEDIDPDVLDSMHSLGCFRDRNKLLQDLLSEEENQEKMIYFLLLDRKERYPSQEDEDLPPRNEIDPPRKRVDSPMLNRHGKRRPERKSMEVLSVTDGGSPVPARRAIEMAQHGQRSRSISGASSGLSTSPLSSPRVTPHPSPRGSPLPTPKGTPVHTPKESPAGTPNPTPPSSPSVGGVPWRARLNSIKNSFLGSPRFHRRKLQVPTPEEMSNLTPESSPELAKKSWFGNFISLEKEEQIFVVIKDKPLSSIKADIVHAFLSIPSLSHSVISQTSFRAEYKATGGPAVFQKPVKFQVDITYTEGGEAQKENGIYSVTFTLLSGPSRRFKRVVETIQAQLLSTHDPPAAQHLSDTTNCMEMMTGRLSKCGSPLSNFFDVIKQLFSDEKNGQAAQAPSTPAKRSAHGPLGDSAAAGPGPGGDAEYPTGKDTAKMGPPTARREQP
Sequence of STK3 (human) (Q13188 whole entry, looked up): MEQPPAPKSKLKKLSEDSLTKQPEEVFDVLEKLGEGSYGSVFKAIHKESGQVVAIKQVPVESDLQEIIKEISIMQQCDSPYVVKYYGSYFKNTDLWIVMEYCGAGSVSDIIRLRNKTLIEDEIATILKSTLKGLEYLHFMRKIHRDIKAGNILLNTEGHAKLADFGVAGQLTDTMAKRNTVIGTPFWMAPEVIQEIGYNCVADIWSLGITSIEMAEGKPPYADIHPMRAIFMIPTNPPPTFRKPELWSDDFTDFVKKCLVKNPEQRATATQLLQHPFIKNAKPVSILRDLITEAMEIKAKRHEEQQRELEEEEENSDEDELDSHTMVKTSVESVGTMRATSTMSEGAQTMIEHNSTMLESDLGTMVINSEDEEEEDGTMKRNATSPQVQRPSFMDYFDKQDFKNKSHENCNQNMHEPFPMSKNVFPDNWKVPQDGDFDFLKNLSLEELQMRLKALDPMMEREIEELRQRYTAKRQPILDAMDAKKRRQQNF
Sequence of TBK1 (human) (Q9UHD2 whole entry, looked up): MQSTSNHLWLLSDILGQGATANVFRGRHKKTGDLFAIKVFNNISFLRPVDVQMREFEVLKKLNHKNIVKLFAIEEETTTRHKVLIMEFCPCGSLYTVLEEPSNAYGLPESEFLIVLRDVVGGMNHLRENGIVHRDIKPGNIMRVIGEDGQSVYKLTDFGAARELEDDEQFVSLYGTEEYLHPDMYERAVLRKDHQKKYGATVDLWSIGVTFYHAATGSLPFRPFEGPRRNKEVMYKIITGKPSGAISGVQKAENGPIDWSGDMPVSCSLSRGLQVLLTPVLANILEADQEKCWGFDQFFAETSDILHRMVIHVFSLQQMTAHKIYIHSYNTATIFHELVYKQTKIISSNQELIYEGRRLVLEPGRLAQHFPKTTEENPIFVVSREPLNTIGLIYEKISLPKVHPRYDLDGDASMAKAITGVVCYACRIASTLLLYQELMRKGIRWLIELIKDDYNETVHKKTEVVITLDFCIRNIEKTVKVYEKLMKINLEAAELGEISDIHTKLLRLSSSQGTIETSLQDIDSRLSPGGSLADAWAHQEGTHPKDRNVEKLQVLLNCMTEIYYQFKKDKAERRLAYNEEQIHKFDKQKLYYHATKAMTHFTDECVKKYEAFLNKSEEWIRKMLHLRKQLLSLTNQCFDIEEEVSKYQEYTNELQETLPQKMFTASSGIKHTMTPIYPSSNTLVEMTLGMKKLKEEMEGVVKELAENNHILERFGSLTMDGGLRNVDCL

residual activity (TBK1 (human); compound 10.0 µM): 75% | residual activity (MYLK (human); compound 10.0 µM): 68% | residual activity (PRKCA (human); compound 10.0 µM): 67% | residual activity (BRSK2 (human); compound 10.0 µM): 70% | residual activity (SRC (human); compound 10.0 µM): 91% | residual activity (DYRK3 (human); compound 10.0 µM): 45% | residual activity (DYRK3 (human); compound 100.0 µM): 6% | residual activity ([1]; compound 10.0 µM): 89% | residual activity (NTRK1 (human); compound 10.0 µM): 73% | residual activity (ERBB4 (human); compound 10.0 µM): 43% | residual activity (ERBB4 (human); compound 100.0 µM): 23% | residual activity (AURKB (human); compound 10.0 µM): 70% | residual activity (AURKB (human); compound 100.0 µM): 3% | residual activity (MAPKAPK5 (human); compound 10.0 µM): 94% | residual activity (NEK6 (human); compound 10.0 µM): 73% | residual activity (HIPK1 (human); compound 10.0 µM): 84% | residual activity (MAP3K1 (human); compound 10.0 µM): 90% | residual activity (MAPKAPK2 (human); compound 10.0 µM): 92% | residual activity (MAPKAPK2 (human); compound 100.0 µM): 5% | residual activity (MAPK13 (human); compound 10.0 µM): 88% | residual activity (MAPK13 (human); compound 100.0 µM): 46% | residual activity (STK3 (human); compound 10.0 µM): 76% | residual activity (MAP3K5 (human); compound 10.0 µM): 96% | residual activity (SRPK1 (human); compound 10.0 µM): 82% | residual activity (MARK1 (human); compound 10.0 µM): 82% | residual activity (RIPK2 (human); compound 10.0 µM): 52% | residual activity (RIPK2 (human); compound 100.0 µM): 23% | residual activity (PIM1 (human); compound 10.0 µM): 22% | residual activity (PIM1 (human); compound 100.0 µM): 6% | residual activity ([2]; compound 10.0 µM): 3% | residual activity ([2]; compound 100.0 µM): 7% | residual activity (FGFR1 (human); compound 10.0 µM): 47% | residual activity (FGFR1 (human); compound 100.0 µM): 23% | residual activity (AURKA (human); compound 10.0 µM): 54% | residual activity (AURKA (human); compound 100.0 µM): 2% | residual activity (MAP2K1 (human); compound 10.0 µM): 80% | residual activity (MELK (human); compound 10.0 µM): 73% | residual activity (MAP2K2 (human); compound 10.0 µM): 87% | residual activity (YES1 (human); compound 10.0 µM): 77% | residual activity (BRSK1 (human); compound 10.0 µM): 80% | residual activity (FLT1 (human); compound 10.0 µM): 45% | residual activity (FLT1 (human); compound 100.0 µM): 6% | residual activity (CaMK1 (human); compound 10.0 µM): 20% | residual activity (CaMK1 (human); compound 100.0 µM): 5% | residual activity (IGF1R (human); compound 10.0 µM): 70% | residual activity (TTK (human); compound 10.0 µM): 53% | residual activity (TTK (human); compound 100.0 µM): 35% | residual activity (DAPK1 (human); compound 10.0 µM): 71%
SMILES: Cc1nc(N)sc1-c1csc(Nc2cccnc2)n1

residual activity (TBK1 (human); compound 1.0 µM): 76% | residual activity (TBK1 (human); compound 10.0 µM): 41% | residual activity (MYLK (human); compound 1.0 µM): 26% | residual activity (MYLK (human); compound 10.0 µM): 11% | residual activity (PRKCA (human); compound 1.0 µM): 78% | residual activity (PRKCA (human); compound 10.0 µM): 27% | residual activity (BRSK2 (human); compound 1.0 µM): 46% | residual activity (BRSK2 (human); compound 10.0 µM): 32% | residual activity (SRC (human); compound 1.0 µM): 81% | residual activity (SRC (human); compound 10.0 µM): 41% | residual activity (DYRK3 (human); compound 1.0 µM): 45% | residual activity (DYRK3 (human); compound 10.0 µM): 10% | residual activity ([1]; compound 1.0 µM): 92% | residual activity ([1]; compound 10.0 µM): 68% | residual activity (NTRK1 (human); compound 1.0 µM): 27% | residual activity (NTRK1 (human); compound 10.0 µM): 14% | residual activity (ERBB4 (human); compound 1.0 µM): 89% | residual activity (ERBB4 (human); compound 10.0 µM): 74% | residual activity (AURKB (human); compound 1.0 µM): 15% | residual activity (AURKB (human); compound 10.0 µM): 13% | residual activity (MAPKAPK5 (human); compound 1.0 µM): 78% | residual activity (MAPKAPK5 (human); compound 10.0 µM): 39% | residual activity (NEK6 (human); compound 1.0 µM): 95% | residual activity (NEK6 (human); compound 10.0 µM): 66% | residual activity (HIPK1 (human); compound 1.0 µM): 81% | residual activity (HIPK1 (human); compound 10.0 µM): 27% | residual activity (MAP3K1 (human); compound 1.0 µM): 73% | residual activity (MAP3K1 (human); compound 10.0 µM): 28% | residual activity (MAPKAPK2 (human); compound 1.0 µM): 95% | residual activity (MAPKAPK2 (human); compound 10.0 µM): 77% | residual activity (MAPK13 (human); compound 1.0 µM): 98% | residual activity (MAPK13 (human); compound 10.0 µM): 26% | residual activity (STK3 (human); compound 1.0 µM): 40% | residual activity (STK3 (human); compound 10.0 µM): 29% | residual activity (MAP3K5 (human); compound 1.0 µM): 19% | residual activity (MAP3K5 (human); compound 10.0 µM): 6% | residual activity (SRPK1 (human); compound 1.0 µM): 91% | residual activity (SRPK1 (human); compound 10.0 µM): 77% | residual activity (MARK1 (human); compound 1.0 µM): 68% | residual activity (MARK1 (human); compound 10.0 µM): 29% | residual activity (RIPK2 (human); compound 1.0 µM): 80% | residual activity (RIPK2 (human); compound 10.0 µM): 48% | residual activity (PIM1 (human); compound 1.0 µM): 43% | residual activity (PIM1 (human); compound 10.0 µM): 15% | residual activity ([2]; compound 1.0 µM): 104% | residual activity ([2]; compound 10.0 µM): 98% | residual activity (FGFR1 (human); compound 1.0 µM): 52% | residual activity (FGFR1 (human); compound 10.0 µM): 22% | residual activity (AURKA (human); compound 1.0 µM): 40% | residual activity (AURKA (human); compound 10.0 µM): 6% | residual activity (MAP2K1 (human); compound 1.0 µM): 67% | residual activity (MAP2K1 (human); compound 10.0 µM): 26% | residual activity (MELK (human); compound 1.0 µM): 77% | residual activity (MELK (human); compound 10.0 µM): 109% | residual activity (MAP2K2 (human); compound 1.0 µM): 64% | residual activity (MAP2K2 (human); compound 10.0 µM): 21% | residual activity (YES1 (human); compound 1.0 µM): 71% | residual activity (YES1 (human); compound 10.0 µM): 33% | residual activity (BRSK1 (human); compound 1.0 µM): 48% | residual activity (BRSK1 (human); compound 10.0 µM): 29% | residual activity (FLT1 (human); compound 1.0 µM): 29% | residual activity (FLT1 (human); compound 10.0 µM): 14% | residual activity (CaMK1 (human); compound 1.0 µM): 70% | residual activity (CaMK1 (human); compound 10.0 µM): 31% | residual activity (IGF1R (human); compound 1.0 µM): 55% | residual activity (IGF1R (human); compound 10.0 µM): 11% | residual activity (TTK (human); compound 1.0 µM): 74% | residual activity (TTK (human); compound 10.0 µM): 57% | residual activity (DAPK1 (human); compound 1.0 µM): 50% | residual activity (DAPK1 (human); compound 10.0 µM): 37%
SMILES: O=C1c2ccccc2-c2n[nH]c3cccc1c23
